Measured values published in the OPERA property sets (Mansouri et al. 2018).

Conditions: for log10 biotransformation half-life (days) / log10 BCF: fish

Structure (SMILES) | boiling point | melting point | further results
CCC(S)CC | 105 °C | -111 °C | 
Clc1cc(Cl)c(-c2cccc(Cl)c2Cl)cc1Cl |  |  | log10 Henry constant (atm·m³/mol): -4.13; log10 Koc (L/kg): 5.69; log10 biotransformation half-life (days): 2.55
C(=Nc1ccccc1)Nc1ccccc1 |  | 142 °C | 
CCCCCCCCCCc1ccccc1 | 298 °C | -14.4 °C | log10 vapour pressure (mmHg): -2.89; log10 biotransformation half-life (days): 0.63
CC(=O)Nc1ccc(N)cc1 | 267 °C | 166 °C | ready biodegradability: readily biodegradable
CC1OCCO1 | 81.5 °C |  | 
O=C1C(Cl)=C(Cl)C(=O)C(Cl)=C1Cl |  | 290 °C | log10 Koc (L/kg): 2.32
Oc1ccc2ccc(O)cc2c1 |  | 193 °C | 
O=C(Cl)CCl | 106 °C | -22 °C | log10 vapour pressure (mmHg): 1.4
CCCC(=O)OCCOc1ccccc1 | 251 °C |  | 
CC(C)NC(=O)N1CC(=O)N(c2cc(Cl)cc(Cl)c2)C1=O |  | 136 °C | log10 Henry constant (atm·m³/mol): -8.51; log10 Koc (L/kg): 2.85; log10 vapour pressure (mmHg): -8.43; log10 BCF: 2.53
C=Cc1cccc(CC)c1 | 190 °C | -101 °C | log10 vapour pressure (mmHg): -0.0947; ready biodegradability: not readily biodegradable
Cl[C@H]1[C@H](Cl)[C@@H](Cl)[C@H](Cl)[C@@H](Cl)[C@H]1Cl (racemic) |  |  | ready biodegradability: not readily biodegradable
O=C1CCCCC1Cl (centres undefined) |  | 23 °C | 
CCCC(=O)OC(=O)CCC | 200 °C | -75 °C | log10 vapour pressure (mmHg): -0.548
c1ccc(-c2cccc(-c3ccccc3)c2)cc1 | 363 °C | 87 °C | log10 vapour pressure (mmHg): -4.76
COc1ccc(CCCCO)cc1 |  | 3.5 °C | 
Clc1cccc(Br)c1Cl | 245 °C | 60 °C | 
CCCCCCCCCCCCCCCCOCCCCCCCCCCCCCCCC |  | 55 °C | ready biodegradability: not readily biodegradable
CCCCC(CC)COCCO (centres undefined) | 229 °C |  | 
CCC(C(=O)O)C1(O)CCC(c2ccccc2)CC1 (centres undefined) |  | 157 °C | 
O=S(=O)(O)CCCNC1CCCCC1 |  | 302 °C | 

Structure (SMILES) | boiling point | melting point | further results
CCCCB(CCCC)CCCC | 209 °C |  | 
CN(C)c1ccc(C=Cc2ccccc2)cc1 |  | 150 °C | 
N#CCCCCCCC#N |  | -3.5 °C | 
O=C(O)CCC(=O)Nc1ccc(S(=O)(=O)Nc2nccs2)cc1 |  | 194 °C | 
CCCCCCCC/C=C\CCCCCCCC(=O)OCC(COC(=O)CCCCCCC/C=C\CCCCCCCC)OC(=O)CCCCCCC/C=C\CCCCCCCC |  |  | ready biodegradability: readily biodegradable
CC1=CC(C)(C)Nc2ccccc21 | 260 °C | 26.5 °C | ready biodegradability: not readily biodegradable
N#CCC#N | 218 °C | 32 °C | log10 vapour pressure (mmHg): -0.698
CCNCC.Cl |  | 228 °C | 
CCCCCCCCCCCCC(C)=O |  | 33.5 °C | 
FC(F)(Cl)C(Cl)Cl | 71.9 °C |  | 
FCC1CO1 (centres undefined) | 85.5 °C |  | 
O=c1cccco1 | 208 °C | 8.5 °C | 
CC1CC(O)CC(C)(C)C1 (centres undefined) | 196 °C | 46.5 °C | 
O=CF | -26.5 °C | -142 °C | log10 vapour pressure (mmHg): 3.46
O=C(O)c1ccc(-c2ccccc2)cc1 |  | 228 °C | 
CCNCc1ccccc1 | 194 °C |  | 
CCC(C)(O)C#CC(C)(O)CC (centres undefined) | 135 °C |  | 
CCCCC(=O)C(C)C | 158 °C |  | 
NS(=O)(=O)c1cc2c(cc1Cl)NC(Cc1ccc(F)cc1)NS2(=O)=O (centres undefined) |  | 239 °C | 
CCOc1ccccc1F | 171 °C | -16.7 °C | 
CCC(c1ccc(O)cc1)c1ccc(O)cc1 |  | 132 °C | 
CCN(CC)c1ccc2c(-c3ccccc3C(=O)O)c3ccc(N(CC)CC)cc3[o+]c2c1 |  |  | log10 BCF: 0.23

Structure (SMILES) | boiling point | melting point | further results
CCCCCCC=NO | 195 °C | 57.5 °C | 
COc1cccc(C)c1 | 176 °C | -47 °C | 
C[N+](C)(C)CCOC(=O)CCC(=O)OCC[N+](C)(C)C.[Cl-].[Cl-] |  | 190 °C | 
COc1ccc(O[C@@H]2O[C@H](CO)[C@H](O)[C@H](O)[C@H]2O)cc1 |  | 159 °C | 
c1ccc(-c2ccc3ccccc3n2)cc1 | 363 °C | 86 °C | 
FC(F)(F)SSC(F)(F)F | 34.6 °C |  | 
O=C1C=CC(=O)c2c(O)ccc(O)c21 |  | 232 °C | 
Clc1ccc2c(c1)Oc1cc(Cl)ccc1O2 |  | 151 °C | log10 vapour pressure (mmHg): -5.98
CC(C)(O)CCSc1ccc(S(N)(=O)=O)cc1 |  | 140 °C | 
O=P(c1ccccc1)(c1ccccc1)c1ccccc1 |  | 156 °C | log10 vapour pressure (mmHg): -8.59
CN1CCc2cc3c(cc2C1)OCO3 | 304 °C | 66 °C | 
Sc1ccccc1 | 169 °C | -14.9 °C | log10 vapour pressure (mmHg): 0.286; ready biodegradability: not readily biodegradable
CC1(C)CC[C@]2(C(=O)O)CC[C@]3(C)C(=CC[C@@H]4[C@@]5(C)CC[C@H](O)[C@@](C)(C=O)[C@@H]5CC[C@]43C)[C@@H]2C1 |  | 275 °C | 
NNC=O |  | 55 °C | 
CC(C)Oc1ccc(C(=O)NS(=O)(=O)c2ccc(N)cc2)cc1 |  | 172 °C | 
O=[N+]([O-])OCC(CO[N+](=O)[O-])O[N+](=O)[O-] | 250 °C | 13.5 °C | log10 vapour pressure (mmHg): -3.4
CC1=CCOCC1 | 118 °C |  | 
CN(C)c1ccncc1 |  | 112 °C | 
O=C1C=CC2(CCC23C=CC(=O)O3)O1 (centres undefined) |  | 158 °C | 
COc1cc(O)ccc1O |  | 90 °C | 
Brc1ccc(Sc2ccc(Br)cc2)cc1 | 268 °C | 115 °C | 
C=C(CC)C(C)CC (centres undefined) | 112 °C |  | 

Structure (SMILES) | boiling point | melting point | further results
CCC(C)(c1ccc(O)cc1)c1ccc(O)cc1 |  | 120 °C | 
CN(C)C1CSSC1 |  | 177 °C | log10 BCF: 1.72
C=Cc1ccccc1OC | 197 °C | 29 °C | 
Cc1cccc(N)n1 | 208 °C | 41 °C | 
CC(C)C(C(=O)OC(C#N)c1cccc(Oc2ccccc2)c1)c1ccc(Cl)cc1 (centres undefined) |  | 52.2 °C | log10 Koc (L/kg): 3.73; log10 vapour pressure (mmHg): -8.82; log10 BCF: 2.85; log10 biotransformation half-life (days): 0.69
CC(=O)Nc1ccc2c(c1)Cc1cc(F)ccc1-2 |  |  | ready biodegradability: not readily biodegradable
Clc1ccc(Br)cc1Cl | 237 °C | 25 °C | 
COc1ccccc1-c1ccccc1OC | 308 °C |  | 
O=C(O)c1ccc(O)c(O)c1O |  | 221 °C | 
N#CCc1ccccc1[N+](=O)[O-] |  | 84 °C | 
CCC(C)(O)CC(C)C (centres undefined) | 152 °C |  | 
CCOC(=O)C(SP(=S)(OC)OC)c1ccccc1 (centres undefined) |  | 17.5 °C | log10 Koc (L/kg): 3; log10 vapour pressure (mmHg): -5.58; ready biodegradability: not readily biodegradable; log10 BCF: 1.69; log10 biotransformation half-life (days): -0.75
CC1=C(C)C(=O)c2ccccc2C1=O |  | 127 °C | 
O=C(NC(=O)c1c(F)cccc1F)Nc1ccc(OC(F)(F)C(F)OC(F)(F)F)c(Cl)c1 (centres undefined) |  | 178 °C | 
CCC1(c2ccccc2)C(=O)NC(=O)NC1=O |  | 174 °C | ready biodegradability: not readily biodegradable
CCOC(=O)C1CC1 | 134 °C |  | 
Cc1ccc(O)c(C)c1C | 236 °C | 81 °C | 
C=Cn1c2ccccc2c2ccccc21 |  | 65 °C | 
CC[C@]12CCCN3CCc4c(n(c5ccccc45)[C@@](O)(C(=O)OC)C1)[C@@H]32 |  | 232 °C | 
OCCc1ccccc1 | 218 °C | -27 °C | log10 Henry constant (atm·m³/mol): -6.59; log10 Koc (L/kg): 1.5; log10 vapour pressure (mmHg): -1.06; ready biodegradability: readily biodegradable
CCOC(=O)c1ccc(OC)c(OC)c1 | 296 °C | 43.5 °C | 
O=Cc1ccc(Br)cc1 |  | 67 °C | 
